EP0171977A1, “Phthalimide derivatives, compositions containing them and a process for preparing them” (SANKYO COMPANY LIMITED, priority 1984, dated 1986)
Read-outs that look alike come from different tables or passages of the source.

Legend:
[1] = system: collateral blood vessels; assay: Selective vasodilative effect on collateral blood vessels (coronary vascular resistance, method of Winburg et al.); type: in vivo; settings: anaesthetized dogs, test compound 30 ug/kg intravenously vs glyceryl trinitrate 3 µg/kg; for Glyceryl trinitrate ratio RL/RT: ratio of selectivity (RL/RT) of test compound to that of glyceryl trinitrate; for Glyceryl trinitrate ratio RL: ratio of vascular resistance (RL) of test compound to that of glyceryl trinitrate
Procedure: The test animals employed in this experiment were dogs. Each animal was anaesthetized with pentobarbital and the chest was opened to expose the heart, whilst respiration was maintained artificially.
Following the method of Winburg et al. [J. Pharmacol. Exp. Ther., 168, 70-95 (1969)], the vascular resistance (RL) between two points, one at a large coronary artery on the cardiac surface and the other at a small coronary artery, was calculated by dividing the blood pressure difference between these two points by the blood flow. The peripheral resistance of the coronary artery (RT) was determined and the value RL was divided by the value RT, to give the selectivity (RL/RT).
Each compound of the invention tested was administered intravenously at a dose of 30 ug/kg body weight immediately prior to the measurement of vascular resistance. The same experiment was carried out employing glyceryl trinitrate at a dose of 3 µg/kg body weight and the results are reported in the following Table 1 as the glyceryl trinitrate ratios, i.e. the ratio between the vascular resistance of the test compound and that of glyceryl trinitrate or the selectivity of the test compound and that of glyceryl trinitrate.

[2] = system: right atrium of a guinea pig heart; assay: Effect on heart beat: spontaneous contraction of excised right atrium; settings: for inhibition at 100 µg/mL: Concentration 1x10^-4 g/ml; for inhibition at 30 µg/mL: Concentration 3x10^-5 g/ml
Procedure: The right atrium of a guinea pig heart was excised and placed in a bath containing Krebs - Henseleit solution maintained at 37°C, through which was bubbled a gas containing 95% oxygen and 5% carbon dioxide. […] The results, in terms of the percentage decrease (-) or increase (+) in the rate of heart beat, for the compounds of the invention and for glyceryl trinitrate are shown in Table 2.

[3] = Cavia porcellus, Krebs - Henseleit solution, 37°C, read-out: percentage decrease (-) or increase (+) in the rate of heart beat
[4] = Cavia porcellus, Concentration 1x10^-5 g/ml, Krebs - Henseleit solution, 37°C, read-out: percentage decrease (-) or increase (+) in the rate of heart beat
[5] = Cavia porcellus, read-out: percentage decrease (-) or increase (+) in the rate of heart beat

| Compound | Glyceryl trinitrate ratio RL/RT [1] | Glyceryl trinitrate ratio RL [1] | inhibition at 100 µg/mL [2, 3] [%] | inhibition at 10 µg/mL [2, 4] [%] | inhibition at 30 µg/mL [2, 3] [%] | inhibition at 1 µg/mL [2, 5] [%] | inhibition at 3 µg/mL [2, 5] [%] | inhibition at 10 µg/mL [2, 5] [%] | change in the heart beat ([2]; added at doses between 10^-6 and 10 ^5 g/ml) |
| --- | --- | --- | --- | --- | --- | --- | --- | --- | --- |
| CCN(CC)CCOc1ccc2c(c1)C(=O)N(CCO[N+](=O)[O-])C2=O [Compound No. 25, N-(2-nitrooxyethyl)-4-(2-N,N-diethylaminoethoxy)-phthalimide] | 1.6 | 1.6 | 73 | 53 | 67 |  |  |  |  |
| CC(C)N(CCOc1ccc2c(c1)C(=O)N(CCO[N+](=O)[O-])C2=O)C(C)C [Compound No. 27, N-(2-nitrooxyethyl)-4-(2-N,N-diisopropylamino-ethoxy)phthalimide] | 1.4 | 1.8 | 71 | 59 | 64 |  |  |  |  |
| CN(C)CCCOc1ccc2c(c1)C(=O)N(CCO[N+](=O)[O-])C2=O [Compound No. 51, N-(2-nitrooxyethyl)-4-(3-N,N-dimethylamino-propoxy)phthalimide] | 1.4 | 1.6 | 64 | 31 | 58 |  |  |  |  |
| CC(COc1ccc2c(c1)C(=O)N(CCO[N+](=O)[O-])C2=O)CN(C)C (centres unmarked) [Compound No. 54, N-(2-nitrooxyethyl)-4-(3-N,N-dimethylamino-2-methylpropoxy)phthalimide] | 2.1 | 1.7 | 62 | 37 | 56 |  |  |  |  |
| O=C1c2ccc(OCCN3CCCCC3)cc2C(=O)N1CCO[N+](=O)[O-] [Compound No. 59, N-(2-nitrooxyethyl)-4-(2-piperidinoethoxy)-phthalimide] | 1.6 | 1.2 | 74 | 32 | 61 |  |  |  |  |
| O=[N+]([O-])OCC(CO[N+](=O)[O-])O[N+](=O)[O-] [Glyceryl trinitrate, reference compound] |  |  |  |  |  | 0 | -1 | 0 | very little or no change |
